In ChEMBL document CHEMBL1126480, “Peptide azoles: A new class of biologically-active dipeptide mmetics” (Bioorg Med Chem Lett, 1993):

Molecular target: T1, Substance-P receptor (Cavia porcellus, UniProt P30547)
Assay: The compound was evaluated in vitro for the antagonistic activity against Tachykinin receptor 1 in guinea pig myenteric plexus longitudinal muscle strips.
Assay type: functional
Details: read-out: pA2 (converted)

T1 sequence (P30547 whole entry): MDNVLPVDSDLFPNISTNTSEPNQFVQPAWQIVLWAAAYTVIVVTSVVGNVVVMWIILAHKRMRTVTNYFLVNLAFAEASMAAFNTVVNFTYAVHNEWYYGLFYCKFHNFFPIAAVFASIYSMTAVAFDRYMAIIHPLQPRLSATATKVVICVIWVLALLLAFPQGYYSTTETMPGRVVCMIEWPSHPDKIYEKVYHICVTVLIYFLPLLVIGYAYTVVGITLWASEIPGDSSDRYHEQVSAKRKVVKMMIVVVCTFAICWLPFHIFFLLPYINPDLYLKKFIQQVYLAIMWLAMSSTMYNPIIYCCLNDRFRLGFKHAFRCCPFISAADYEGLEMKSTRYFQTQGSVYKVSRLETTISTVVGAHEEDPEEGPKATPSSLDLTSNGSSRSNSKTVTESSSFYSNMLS

Row | Kb | Compound
1 | 126 nM | CC(C)C[C@H](NC(=O)[C@@H](Cc1c[nH]c2ccccc12)NC(=O)[C@H](Cc1ccccc1)c1cnc([C@H](Cc2c[nH]c3ccccc23)NC(=O)[C@@H]2CCCN2)s1)C(=O)N[C@@H](Cc1ccccc1)C(N)=O

Molecular target: T1, Substance-P receptor
Assay: The compound was evaluated in vitro for the antagonistic activity against substance P receptor in guinea pig myenteric plexus longitudinal muscle strips.
Assay type: functional
Details: read-out: pA2 (converted)

Row | Compound | Kb
2 | CC(C)C[C@H](NC(=O)[C@@H](Cc1c[nH]c2ccccc12)NC(=O)[C@H](Cc1ccccc1)c1cnc([C@@H](Cc2c[nH]c3ccccc23)NC(=O)[C@@H]2CCCN2)o1)C(=O)N[C@@H](Cc1ccccc1)C(N)=O | 501 nM
3 | CC(C)C[C@H](NC(=O)[C@@H](Cc1c[nH]c2ccccc12)NC(=O)[C@H](Cc1ccccc1)c1c[nH]c([C@@H](Cc2c[nH]c3ccccc23)NC(=O)[C@@H]2CCCN2)n1)C(=O)N[C@@H](Cc1ccccc1)C(N)=O | 200 nM
4 | CC(C)C[C@H](NC(=O)[C@@H](Cc1c[nH]c2ccccc12)NC(=O)[C@H](Cc1ccccc1)c1cnc([C@@H](Cc2c[nH]c3ccccc23)NC(=O)[C@@H]2CCCN2)s1)C(=O)N[C@@H](Cc1ccccc1)C(N)=O | 39.8 nM

Continued, values first:

Row | Kb | Compound
5 | 398 nM | H-PWFWLF-NH2
6 | 1260 nM | CC(C)C[C@H](NC(=O)[C@@H](Cc1c[nH]c2ccccc12)c1cnc(C(=O)[C@H](Cc2ccccc2)NC(=O)[C@@H](Cc2c[nH]c3ccccc23)NC(=O)[C@@H]2CCCN2)s1)C(=O)N[C@@H](Cc1ccccc1)C(N)=O
